Patent publication US10442788B2, “Hepatitis B antiviral agents” (ENANTA PHARMACEUTICALS, INC., priority 2015, dated 2019)
pEC50: −log10 of the molar value.

These molecules were tested on HBV (assay: HepAD38 antiviral assay: reduction of viral product accumulation (virion DNA by qPCR, HBsAg or HBeAg by ELISA)). Conditions: Hepatitis B virus, 120 h; HepAD38 cells, five days after compound addition; 50% reduction of viral product accumulation relative to no drug controls; read-out: HepAD38 EC50.
Type: cell-based
Description: Methods: HepAD38 cells are maintained as previously reported (Ladner et al, Antimicrob. Agents Chemother. 1997, […], 1715). Briefly, cells are passaged upon attaining confluency in DMEM/F12 media in the presence of 10% FBS, Penn/Strep, 250 μg/mL G418, and 1 ug/ml tetracycline. Novel compounds are screened by first washing cells three times with PBS to remove tetracycline, and plating in 96 well plates at 35,000 cells/well. Compounds dissolved in DMSO are then diluted 1:200 into wells containing cells. Five days after compound addition, material is harvested for analysis. For an extended 8 day analysis, cells are plated and treated as described above, but media and compound are refreshed on d2 and d5 post initial treatment.
On harvest day, virion DNA is obtained by lysing with Sidestep Lysis and Stabilization Buffer and then quantified via quantitative real time PCR. Commercially available ELISA kits are used to quantitate the viral proteins HBsAg (Alpco) or HbeAg (US Biological) by following the manufacturer's recommended protocol after diluting samples to match the linear range of their respective assays. Irrespective of readout, compound concentrations that reduce viral product accumulation in the cell lysates or supernatants by 50% relative to no drug controls (EC50) are reported; EC50 ranges are as follows: A<1 μM; B 1-10 μM; C>10 μM.
In the case of O=S(=O)(c1cc(-c2ncc(-c3ccc(Br)c(F)c3)[nH]2)ccc1Cl)N1CCC[C@@H](CO)C1 [Example 261], the pEC50 was over 6.00.
With O=S(=O)(c1cc(-c2ncc(-c3ccc(Br)c(F)c3)[nH]2)ccc1Cl)N1CCC[C@H](CO)C1 [Example 262] the pEC50 was over 6.00.
Work on O=S(=O)(c1cc(-c2nc(-c3ccc(Br)c(F)c3)c[nH]2)ccc1Cl)N1CCC[C@H](O)[C@H](O)C1 [Example 263] yielded a pEC50 of over 6.00.
For O=S(=O)(c1cc(-c2nc(-c3ccc(Br)c(F)c3)c[nH]2)ccc1Cl)N1CCC[C@@H](O)[C@@H](O)C1 [Example 264], the pEC50 was over 6.00.
With O=S(=O)(c1cc(-c2nc(-c3ccc(Br)c(F)c3)c[nH]2)ccc1Cl)N1CCn2c(nnc2C(F)(F)F)C1 [Example 265] the pEC50 was over 6.00.
O=S(=O)(c1cc(-c2nc(-c3ccc(Br)c(F)c3)c[nH]2)ccc1Cl)N1CCCOCC1 [Example 266] gave a pEC50 of over 6.00.
O=S(=O)(c1cc(-c2nc(-c3ccc(Br)c(F)c3)c[nH]2)ccc1F)N1CCC(O)CC1 [Example 267] gave a pEC50 of over 6.00.
Work on O=S(=O)(c1cc(-c2ncc(-c3ccc(Br)c(F)c3)[nH]2)ccc1Cl)N1CCC[C@@H](O)C1 [Example 268] yielded a pEC50 of over 6.00.
Work on O=S(=O)(c1cc(-c2ncc(-c3ccc(Br)c(F)c3)[nH]2)ccc1Cl)N1CCCCC(CO)C1 (stereo not drawn) [Example 269] yielded a pEC50 of over 6.00.
With O=S(=O)(c1cc(-c2ncc(-c3ccc(Br)c(F)c3)[nH]2)ccc1Cl)N1CC[C@H](O)[C@@H](C(F)(F)F)C1 [Example 270] the pEC50 was over 6.00.
In the case of O=S(=O)(c1cc(-c2ncc(-c3ccc(Br)c(F)c3)[nH]2)ccc1Cl)N1CC[C@H](O)C1 [Example 271], the pEC50 was over 6.00.
COC(=O)N1C[C@@H]2[C@@H](CNS(=O)(=O)c3cc(-c4ncc(-c5ccc(Br)c(F)c5)[nH]4)ccc3Cl)[C@@H]2C1 [Example 272] was tested, and the pEC50 was 5.00 to 6.00.
For COC(=O)NC1CN(S(=O)(=O)c2cc(-c3ncc(-c4ccc(Br)c(F)c4)[nH]3)ccc2Cl)C1 [Example 273], the pEC50 was over 6.00.
Molecule COC(=O)NCC1CCN(S(=O)(=O)c2cc(-c3ncc(-c4ccc(Br)c(F)c4)[nH]3)ccc2Cl)C1 (stereo not drawn) [Example 274] has a pEC50 of over 6.00.
O=S(=O)(c1cc(-c2nc(-c3ccc(Br)c(F)c3)c[nH]2)ccc1Cl)N1C[C@H](O)C[C@@H]2C[C@@H]2C1 [Example 275] gave a pEC50 of over 6.00.
In the case of O=S(=O)(c1cc(-c2nc(-c3ccc(Br)c(F)c3)c[nH]2)ccc1Cl)N1CCN(c2ncccc2F)CC1 [Example 276], the pEC50 was over 6.00.
For O=S(=O)(c1cc(-c2nc(-c3ccc(Br)c(F)c3)c[nH]2)ccc1Cl)N1CCC[C@@H](O)[C@H](O)C1 [Example 277], the pEC50 was over 6.00.
Molecule O=S(=O)(c1cc(-c2nc(-c3ccc(Br)c(F)c3)c[nH]2)ccc1Cl)N1CCC[C@H](O)[C@@H](O)C1 [Example 278] has a pEC50 of over 6.00.
In the case of O=S(=O)(c1cc(-c2nc(-c3ccc(Br)c(F)c3)c[nH]2)ccc1Cl)N1CCN(c2ncccc2Cl)CC1 [Example 279], the pEC50 was over 6.00.
O=S(=O)(c1cc(-c2nc(-c3ccc(Br)c(F)c3)c[nH]2)ccc1Cl)N1CCN(c2cc(Cl)ccn2)CC1 [Example 280] gave a pEC50 of over 6.00.
Work on O=S(=O)(c1cc(-c2nc(-c3ccc(Br)c(F)c3)c[nH]2)ccc1Cl)N1CCN(c2ccc(Cl)cn2)CC1 [Example 281] yielded a pEC50 of over 6.00.
For O=S(=O)(c1cc(-c2nc(-c3ccc(Br)c(F)c3)c[nH]2)ccc1Cl)N1CCN(c2cccc(Cl)n2)CC1 [Example 282], the pEC50 was over 6.00.
For O=S(=O)(c1cc(-c2nc(-c3ccc(Br)c(F)c3)c[nH]2)ccc1Cl)N1C[C@H](O)CC[C@@H](O)C1 [Example 283], the pEC50 was over 6.00.
O=S(=O)(c1cc(-c2nc(-c3ccc(Br)c(F)c3)c[nH]2)ccc1Cl)N1C[C@H](O)CC[C@H](O)C1 [Example 284] gave a pEC50 of over 6.00.
